The numbers were not newly measured in US7011849B2, “Second release phase formulation” (Beecham Pharmaceuticals (Pte) Limited, priority 2000, dated 2006), which cites them from elsewhere.

For this series the following is noted: in vivo.

As for `CC1(C)S[C@@H]2[C@H](NC(=O)[C@H](N)c3ccc(O)cc3)C(=O)N2[C@H]1C(=O)O` [amoxicillin], the elimination half-life result is “about 1.3 hours”.
